Values of other authors as cited in patent publication US10328040B2, “Therapeutic methods” (ARIZONA BOARD OF REGENTS ON BEHALF OF ARIZONA STATE …, priority 2014, dated 2019).

Columns and labels:
[1] = test system: hRXR; settings: Caco-2 cells
[2] = molecular target: hRXR; settings: Caco-2 cells; remark: listed apart in the source
[3] = test system: RXR β; settings: CV-1 cell line; read-out: EC50 for RXR β subtype
[4] = test system: RXR γ; settings: CV-1 cell line; read-out: EC50 for RXR γ subtype
[5] = molecular target: hRXRβ (Homo sapiens, UniProt P28702); settings: read-out: EC50 for the hRXRβ isoform
Chain of hRXRβ (P28702 whole entry, canonical isoform): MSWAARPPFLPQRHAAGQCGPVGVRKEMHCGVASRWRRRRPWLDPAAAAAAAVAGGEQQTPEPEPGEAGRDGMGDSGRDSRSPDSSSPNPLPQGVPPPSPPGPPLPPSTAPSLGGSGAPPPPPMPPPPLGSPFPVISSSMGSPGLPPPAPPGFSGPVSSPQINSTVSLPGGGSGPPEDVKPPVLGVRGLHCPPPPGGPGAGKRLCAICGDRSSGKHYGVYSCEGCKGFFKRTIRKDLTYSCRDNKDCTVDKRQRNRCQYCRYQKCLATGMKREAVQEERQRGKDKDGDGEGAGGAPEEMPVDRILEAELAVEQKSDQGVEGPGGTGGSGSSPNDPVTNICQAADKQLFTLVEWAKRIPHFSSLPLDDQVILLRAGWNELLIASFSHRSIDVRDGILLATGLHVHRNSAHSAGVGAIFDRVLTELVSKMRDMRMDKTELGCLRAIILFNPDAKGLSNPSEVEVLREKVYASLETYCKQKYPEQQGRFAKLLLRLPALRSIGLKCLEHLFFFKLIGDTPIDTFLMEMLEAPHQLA

[6] = test system: rat model of Parkinson's disease; settings: low dose

C=C(c1ccc(C(=O)O)c(F)c1)c1cc2c(cc1C)C(C)(C)CCC2(C)C [Compound 3]
EC50 [1]: 43 nM | Kd [2]: 12 nM

Cc1cc2c(cc1-c1cc(/C=C/C(=O)O)ccc1O)C(C)(C)CCC2(C)C [CD3254, (E)-3-(3-(1,2,3,4-tetrahydro-1,1,4,4,6-pentamethylnaphthylen-7-yl)-4-hydroxyphenyl)acrylic Acid]
EC50 [5]: ~10 nM

C=C(c1ccc(C(=O)O)cc1)c1cc2c(cc1C)C(C)(C)CCC2(C)C [Bexarotene]
PD symptoms [6]: marked improvement in the PD symptoms | dopamine cells and natural behavior ([6]; rat model of PD): restored dopamine cells and natural behavior
